Data reported in PubChem BioAssay (NCI).
Where “and” joins values, the source holds several entries; their conditions need not be identical. Equal entries are not always repeated.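 1) Cells in 96-well plates. 2) Compound, 48 h, 5 concentrations. 3) Linear interpolation between surrounding doses. 4) Unreached endpoint = highest concentration. GI50: concentration for 50% inhibition of growth. The concentration for full growth arrest is given as TGI.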

Tests used:
Experiment in all cases: NCI anticancer screen, dose series, 48 h
[1] = test system: A498 renal
[2] = test system: HL-60(TB) leukemia
[3] = test system: HOP-92 NSCLC
[4] = test system: M14 melanoma
[5] = test system: MALME-3M melanoma
[6] = test system: NCI-H23 lung
[7] = test system: SNB-75 CNS
[8] = test system: SW-620 colon
[9] = test system: UACC-257 melanoma
[10] = test system: UO-31 renal

SMILES	GI50 [1]	TGI [1]	GI50 [2]	TGI [2]	GI50 [3]	TGI [3]	GI50 [4]	TGI [4]	GI50 [5]	TGI [5]	GI50 [6]	TGI [6]	GI50 [7]	TGI [7]	GI50 [8]	TGI [8]	GI50 [9]	TGI [9]	GI50 [10]	TGI [10]
CC[C@@H](C(=O)[C@H](C)[C@H](O)[C@@H](C)[C@H]1O[C@H]([C@@H](CC)C(=O)O)CC[C@H]1C)C1O[C@]2(C=C[C@@H](O)[C@]3(CC[C@@](C)([C@H]4CC[C@](O)(CC)[C@H](C)O4)O3)O2)[C@H](C)C[C@@H]1C (stereo not given in full)	0.044 µM	0.48 µM	0.06 µM	0.506 µM	0.69 µM	5.78 µM	1.13 µM	2.89 µM	0.241 µM	1.35 µM	0.296 µM	7.24 µM	0.777 µM	4.63 µM	0.966 µM	10.7 µM	0.23 µM	6.98 µM	1.42 µM	23.9 µM
C/C(=N\NC(=S)N1CCN(C2CCCCCC2)CC1)c1ccccn1		3.76 µM	< 0.001 µM		0.00788 µM	3.05 µM	< 0.001 µM	2.85 µM and 1.2 µM	0.0382 µM	3.09 µM		5.77 µM		5.09 µM	0.407 µM	3.83 µM and 1.91 µM	< 0.001 µM	1.21 µM	1.35 µM	3.75 µM and 1.5 µM
CC1SC2(CCC(c3ccccc3)CC2)N(NC(=O)c2[nH]c3ccc(F)cc3c2-c2ccccc2)C1=O (stereo not given)	13 µM	28.2 µM	1.31 µM	4.53 µM	1.33 µM	3.65 µM	5.67 µM	21.9 µM	16 µM	49.8 µM	4.4 µM	19 µM	19.4 µM	42.2 µM	6.57 µM	> 100 µM	19 µM	53.9 µM	6.48 µM	33.1 µM
CCCC[n+]1c(/C=C\c2c(OC)cc(OC)cc2OC)ccc2ccccc21	0.157 µM	2.87 µM	0.241 µM	1.39 µM	0.502 µM	4.8 µM	1.18 µM	2.81 µM	0.362 µM	2.07 µM	0.779 µM	8.17 µM	1.57 µM	8.21 µM	0.814 µM	10 µM	0.38 µM	2.79 µM	2.22 µM	8.26 µM
CC(=O)[CH-]C(=O)c1ccccc1.CC(=O)[CH-]C(=O)c1ccccc1.CC[C@H](/C=C/C(C)[C@H]1CCC2[C@@H]3CC=C4C[C@@H]([O-])CC[C@]4(C)C3CC[C@@]21C)C(C)C.CC[O-].[Ti+4] (stereo not given in full)	> 100 µM	> 100 µM	> 100 µM	> 100 µM	95.3 µM	> 100 µM	> 100 µM	> 100 µM	> 100 µM	> 100 µM	> 100 µM	> 100 µM	22.4 µM	> 100 µM	> 100 µM	> 100 µM	> 100 µM	> 100 µM	> 100 µM	> 100 µM
Cc1cc(Cl)ccc1NC(=O)CCCC(=O)C1CCC/C1=N\NC(=O)CC#N (stereo not given)		> 100 µM		> 100 µM		> 100 µM		> 100 µM		> 100 µM		> 100 µM		> 100 µM		> 100 µM		> 100 µM		> 100 µM
C1COCCOCCOCCOCCOCCO1.[Cl][Sn]([Cl])([c]1ccccc1)[c]1ccccc1	3.12 µM	11.9 µM	2.64 µM	7.55 µM	2.26 µM	4.52 µM	4.25 µM	12.4 µM	1.99 µM	3.82 µM	2.97 µM	8.84 µM	5.19 µM	19.6 µM	1.65 µM	3.28 µM	2.08 µM	4.63 µM	14.1 µM	27.2 µM
c1ccc(Nc2nc(-c3ccccn3)cs2)nc1	0.266 µM	13.5 µM	0.392 µM	3.01 µM	2.49 µM	> 56.5 µM	0.258 µM		0.156 µM	5.16 µM	0.972 µM	> 32.7 µM	3.03 µM	> 100 µM	0.61 µM	19.9 µM	0.496 µM	15.4 µM	0.0737 µM	0.711 µM
CCC(C)[C@H](NC(=O)NC(=O)NC(=O)CI)C(=O)OC (stereo not given in full)	16.2 µM	30.5 µM	1.6 µM	3.4 µM	2.67 µM	7.3 µM	2.47 µM	6.8 µM	1.89 µM	4 µM	16.3 µM	35.8 µM	10.3 µM	26.1 µM	1.86 µM	3.61 µM	12.6 µM	25.8 µM	1.73 µM	3.28 µM
